This is an account of results in patent US6433001B1, “1H-indole-3-glyoxylamide sPLA2 inhibitors” (Eli Lilly and Company, priority 1994, dated 2002).

Counter-ions that a name gives are not always drawn. Like-named read-outs stand apart in the source and are kept apart here.

For assay [1], the target named is T1, Human Secreted Phospholipase A2 (Homo sapiens, UniProt P14555).
T1 sequence (P14555 21-144): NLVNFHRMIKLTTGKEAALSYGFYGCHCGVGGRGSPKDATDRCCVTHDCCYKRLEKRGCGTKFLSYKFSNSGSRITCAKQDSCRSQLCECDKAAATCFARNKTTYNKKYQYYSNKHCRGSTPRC
Kind of assay: guinea pig lung pleural strip tissue test, sPLA2-induced contraction. The class given is cell-based. Particulars: guinea pig lung pleural strips; compound added 30 min. prior to sPLA2 concentration-response curves; pA2 interpreted as apparent KB; read-out: Tissue test secreted PLA2 Apparent KB. An excerpt: Male Hartley strain guinea pigs (500-700 g) were killed by cervical dislocation and their heart and lungs removed intact and placed in aerated (95% O2:5% CO2) Krebs buffer. Dorsal pleural strips (4×1×25 mm) were dissected from intact parenchymal segments (8×4×25 mm) cut parallel to the outer edge of the lower lung lobes. Two adjacent pleural strips, obtained from a single lobe and representing a single tissue sample, were tied at either end and independently attached to a metal support rod. One rod was attached to a Grass force-displacement transducer (Model FTO3C, product of Grass Medical Instruments Co., Quincy, Mass., USA). […] All tissues were placed in 10 ml jacketed tissue baths maintained at 37° C. The tissue baths were continuously aerated and contained a modified Krebs solution of the following composition (millimolar) NaCl, 118.2; KCl, 4.6; CaCl2.2H2O, 2.5; MgSO4.7H2O, 1.2; NaHCO3, 24.8; KH2PO4, 1.0; and dextrose 10.0. Pleural strips from the opposite lobes of the lung were used for paired experiments. […] The tissues were allowed to equilibrate for 45 min. as the bath fluid was changed periodically.
Initially tissues were challenged 3 times with KCl (40 mM) to test tissue viability and to obtain a consistent response. After recording the maximal response to KCl, the tissues were washed and allowed to return to baseline before the next challenge. Cumulative concentration-response curves were obtained from pleural strips by increasing the agonist concentration (sPLA2) in the tissue bath by half-log10 increments while the previous concentration remained in contact with the tissues (Ref.1, supra.) Agonist concentration was increased after reaching the plateau of the contraction elicited by the preceding concentration. One concentration-response curve was obtained from each tissue. To minimize variability between tissues obtained from different animals, contractile responses were expressed as a percentage of the maximal response obtained with the final KCl challenge. When studying the effects of various drugs on the contractile effects of sPLA2, the compounds and their respective vehicles were added to the tissues 30 min. prior to star ting the sPLA2 concentration-response curves.
Data from different experiments were pooled and presented as a percentage of the maximal KCl responses (mean±S.E.). […] 163, (Ref.2) The model includes four parameters: the maximum tissue response which was assumed the same for each curve, the ED50 for the control curve, the steepness of the curves, and the pA2, the concentration of antagonist that requires a two-fold increase in agonist to achieve an equivalent response. […] 164 (Ref. 2).
To estimate the drug-induced suppression of the maximal responses, siPLA2 responses (10 ug/ml) were determined in the absence and presence of drug, and percent suppression was calculated for each pair of tissues.

The target of assay [2] is T1, Human Secreted Phospholipase A2. Briefly: chromogenic assay for inhibitors of recombinant human secreted phospholipase A2. The class given is biochemical. As for the experimental part: The following chromogenic assay procedure was used to identify and evaluate inhibitors of recombinant human secreted phospholipase A2. The assay described herein has been adapted for high volume screening using 96 well microtiter plates.
Adjust pH to 4.5 with acetic acid
DTNB—5,5′-dithiobis-2-nitrobenzoic acid
RACEMIC DIHEPTANOYL THIO—PC
racemic 1,2-bis(heptanoylthio)-1,2-dideoxy-sn-glycero-3-phosphorylcholine
TRITON X-100™ prepare at 6.249 mg/ml in reaction buffer to equal […].
A measured volume of racemic dipheptanoyl thio PC supplied in chloroform at a concentration of 100 mg/ml is taken to dryness and redissolved in 10 millimolar TRITON X-100™ nonionic detergent aqueous solution.
Reaction Buffer is added to the solution, then DTNB to give the Reaction Mixture.
The reaction mixture thus obtained contains 1 mM diheptanoly thio-PC substrate, 0.29 mm Triton X-100™ detergent, and 0.12 mm DTMB in a buffered aqueous solution at pH 7.5.
1. Add 0.2 ml reaction mixture to all wells;
2. Add 10 ul test compound (or solvent blank) to appropriate wells, mix 20 seconds;
3. Add 50 nanograms of sPLA2 (10 microliters) to appropriate wells;
4. Incubate plate at 40° C. for 30 minutes;
5. Read absorbance of wells at 405 nanometers with an automatic plate reader.
All compounds were tested in triplicate. […] Lack of color development at 405 nanometers evidenced inhibition. […] In all cases, % inhibition measured at 405 nanometers generated by enzyme reactions containing inhibitors relative to the uninhibited control reactions was determined. Each sample was titrated in triplicate and result values were averaged for plotting and calculation of IC50 values.

[3] abbreviates: diheptanoyl thio-PC substrate, pH 7.5, 40° C. for 30 minutes, absorbance at 405 nanometers, read-out: Inhibition of human secreted PLA2 IC50 ± mean deviation (3-4 tests).

In the case of `Cc1c(C(=O)C(N)=O)c2c(OCC(=O)O)cccc2n1Cc1ccccc1-c1ccccc1` [3 (Na salt), [[3-(2-amino-1,2-dioxoethyl)-1-([1,1′-biphenyl]-2-ylmethyl)-2-methyl-1H-indol-4-yl]oxy]acetic acid, sodium salt], the Kb in assay [1] turned out to be 67.6 ± 11.8 nM. Regarding `Cc1c(C(=O)C(N)=O)c2c(OCC(=O)O)cccc2n1Cc1ccccc1` [Example 1, [[3-(2-Amino-1,2-dioxoethyl)-2-methyl-1-(phenylmethyl)-1H-indol-4-yl]oxy]acetic Acid], in assay [2], the IC50 amounted to 10.7 ± 5.51 nM. Moreover, in assay [1], the Kb came out at 143 ± 67 nM. Taken in the same sequence, the figures for `CCc1c(C(=O)C(N)=O)c2c(OCC(=O)O)cccc2n1Cc1ccccc1-c1ccccc1` [Example 11, [[3-(2-Amino-1,2-dioxoethyl)-1-([1,1′-biphenyl]-2-ylmethyl)-2-ethyl-1H-indol-4-yl]oxy]acetic Acid] were 4.33 ± 2.31 nM and 57 ± 11 nM. Take `Cc1c(C(=O)C(N)=O)c2c(OCC(=O)O)cccc2n1Cc1ccc(-c2ccccc2)cc1` [Example 5, [[3-(2-Amino-1,2-dioxoethyl)-1-([1,1′-biphenyl]-4-ylmethyl)-2-methyl-1H-indol-4-yl]oxy]acetic Acid]: in assay [2], the IC50 is 49 ± 11.5 nM. The same measure, in the same setting: the figure for `Cc1c(C(=O)C(N)=O)c2c(OCC(=O)O)cccc2n1Cc1cccc2ccccc12` [Example 8, [[3-(2-Amino-1,2-dioxoethyl)-2-methyl-1-[(1-naphthalenyl)methyl]-1H-indol-4-yl]oxy]acetic Acid] is 32.8 ± 7.04 nM; for `Cc1c(C(=O)C(N)=O)c2c(OCC(=O)O)cccc2n1Cc1ccccc1-c1ccccc1` [Example 3, [[3-(2-Amino-1,2-dioxoethyl)-1-([1,1′-biphenyl]-2-ylmethyl)-2-methyl-1H-indol-4-yl]oxy]acetic Acid] it is 5.33 ± 1.15 nM. Turning to `CCc1c(C(=O)C(N)=O)c2c(OCC(=O)O)cccc2n1Cc1cccc(Cl)c1` [10 (Na salt), [[3-(2-amino-1,2-dioxoethyl)1-[(3-chlorophenyl)methyl]-2-ethyl-1H-indol-4-yl]oxy]acetic acid, sodium salt], in assay [1], the Kb worked out at 110 ± 10 nM. As to `NC(=O)C(=O)c1c(C2CC2)n(Cc2ccccc2)c2cccc(OCC(=O)O)c12` [Example 13, [[3-(2-Amino-1,2-dioxoethyl)-2-cyclopropyl-1-(phenylmethyl)-1H-indol-4-yl]oxy]acetic Acid], the IC50 in assay [2] is 27.6 ± 13.1 nM.

With `CCc1c(C(=O)C(N)=O)c2c(OCC(=O)O)cccc2n1Cc1cccc(Cl)c1` [Example 10, [[3-(2-Amino-1,2-dioxoethyl)-1-[(3-chlorophenyl)methyl]-2-ethyl-1H-indol-4-yl]oxy]acetic Acid], the IC50 in assay [2] stood at 6.67 ± 2.89 nM. As to `Cc1c(C(=O)C(N)=O)c2c(OC(C)C(=O)O)cccc2n1Cc1ccccc1` (racemic) [Example 2, dl-2-[[3-(2-Amino-1,2-dioxoethyl)-2-methyl-1-(phenylmethyl)-1H-indol-4-yl]oxy]propanoic Acid], the concentration for half-maximal inhibition (IC50) in assay [2] (setting [3]) stood at 9 ± 1.73 nM.

For the compound `Cc1c(C(=O)C(N)=O)c2c(OCC(=O)O)cccc2n1Cc1cccc(-c2ccccc2)c1` [Example 4, [[3-(2-Amino-1,2-dioxoethyl)-1-([1,1′-biphenyl]-3-ylmethyl)-2-methyl-1H-indol-4-yl]oxy]acetic Acid], the IC50 in assay [2] amounted to 9.69 ± 1.14 nM. With `Cc1c(C(=O)C(N)=O)c2c(OCC(=O)O)cccc2n1Cc1c(Cl)cccc1Cl` [Example 6, [[3-(2-Amino-1,2-dioxoethyl)-1-[(2,6-dichlorophenyl)methyl]-2-methyl-1H-indol-4-yl]oxy]acetic Acid], in assay [2] (setting [3]), the 50% inhibitory concentration (IC50) turned out to be 6 ± 1 nM. `CCc1c(C(=O)C(N)=O)c2cc(OCCCC(=O)O)ccc2n1Cc1ccccc1` [Example 15]: in assay [2] (setting [3]), the 50% inhibitory concentration (IC50) came to 210 ± 60 nM.

Regarding `CCCc1c(C(=O)C(N)=O)c2c(OCC(=O)O)cccc2n1Cc1ccccc1-c1ccccc1` [Example 12, [[3-(2-amino-1,2-dioxoethyl)-1-([1,1′-biphenyl]-2-ylmethyl)-2-propyl-1H-indol-4-yl]oxy]acetic Acid], the IC50 in assay [2] (setting [3]) turned out to be 82.2 ± 18 nM. Consider `CCc1c(C(=O)C(N)=O)c2c(NCC(=O)O)cccc2n1Cc1ccccc1` [Example 17, [[3-(Aminooxoacetyl)-2-ethyl-1-(phenylmethyl)-1H-indol-4-yl]amino]acetic Acid], for which the IC50 in assay [2] (setting [3]) was 1150 ± 120 nM. `NC(=O)C(=O)c1cn(Cc2ccccc2)c2ccc(OCCCC(=O)O)cc12` [Example 16, 4-[[3-(2-Amino-1,2-dioxoethyl)-1-(phenylmethyl)-H-indol-5-yl]oxy]butanoic Acid]: in assay [2] (comment on Table I), the “activity in inhibiting sPLA2 (in words)” value is “much less active”. The concentration for half-maximal inhibition (IC50) in assay [2] (setting [3]) was found to be 62000 nM. Regarding `Cc1c(C(=O)C(N)=O)c2c(OCC(=O)O)cccc2n1Cc1ccc(F)cc1` [Example 7, [[3-(2-Amino-1,2-dioxoethyl)-1-[4(-fluorophenyl)methyl]-2-methyl-1H-indol-4-yl]oxy]acetic Acid], in assay [2], the concentration for half-maximal inhibition (IC50) came to 6 ± 1 nM. For the compound `NC(=O)C(=O)c1c(C2CC2)n(Cc2ccccc2-c2ccccc2)c2cccc(OCC(=O)O)c12` [Example 14, [[3-(2-Amino-1,2-dioxoethyl)-1-([1,1′-biphenyl]-2-ylmethyl)-2-cyclopropyl-1H-indol-4-yl]oxy]acetic Acid], the half-inhibitory concentration (IC50) in assay [2] is 5.57 ± 2.89 nM. Further, the Kb in assay [1] amounted to 75 ± 9 nM.

By IC50 is commonly meant the concentration that gives 50% inhibition.
